# Marks after values point to notes of the source that are not given here.
# Tested on: rats subjected to sTBI
# Test: sTBI rats, LMW-DS 15 mg/kg s.c.: HPLC of brain purine-pyrimidine/energy metabolites (Example 3)
# Assay type: in vivo, rat
# Procedure: The experimental protocol used in this study was approved by the Ethical Committee of the Catholic University of Rome, according to international standards and guidelines for animal care. Male Wistar rats of 300-350 g body weight (b.w.) were fed with standard laboratory diet and water ad libitum in a controlled environment.
# They were divided into three groups: • 1) n = 6 animals subjected to sTBI, with drug administration after 30 minutes and sacrifice at 2 days post-TBI (Acute phase 1) • 2) n= 6 animals subjected to sTBI, with drug administration after 30 minutes and sacrifice at 7 days post-TBI (Acute phase 2). • 3) n= 6 animals subjected to sTBI, with drug administration after 3 days and sacrifice at 7 days post-TBI (Chronic phase).
# As the anesthetic mixture, animals received 35 mg/kg b.w. ketamine and 0.25 mg/kg b.w. midazolam by i.p. injection. sTBI was induced by dropping a 450 g weight from 2 m height on to the rat head that had been protected by a metal disk previously fixed on the skull, according to the “weight drop” impact acceleration model (Marmarou et al., J Neurosurg. 1994; 80: 291-300). […] At the end of each period of treatment, rats were anesthetized again and then immediately sacrificed.
# The drug treatment was a subcutaneous injection of 0.5 ml of LMW-DS (ILB®, Tikomed AB, Viken, Sweden, WO 2016/076780; 15 mg/kg) and administered according to the aforementioned schematic protocol.
# An in vivo craniectomy was performed in all animals during anesthesia, after carefully removing the rat’s skull, the brain was exposed and removed with a surgical spatula and quickly dropped in liquid nitrogen. After the wet weight (w.w.) determination, tissue preparation was affected as previously disclosed (Tavazzi et al., Neurosurgery. 2005; 56: 582-589; Vagnozzi et al., Neurosurgery. 2007; 61: 379-388; Tavazzi et al., Neurosurgery. 2007; 61: 390-395; Amorini et al., J Cell Mol Med. 2017; 21: 530-542.). Briefly, whole brain homogenization was performed with 7 ml of ice-cold, nitrogen-saturated, precipitating solution composed by CH3CN + 10 mM KH2PO4, pH 7.40, (3:1; v:v), and using an Ultra-Turrax set at 24,000 rpm/min (Janke & Kunkel, Staufen, Germany). After centrifugation at 20,690 x g, for 10 min at 4° C., the clear supernatants were saved, pellets were supplemented with 3 ml of the precipitating solution and homogenized again as described above. A second centrifugation was performed (20,690 x g, for 10 min at 4° C.), pellets were saved, supernatants combined with those previously obtained, extracted by vigorous agitation with a double volume of HPLC-grade CHCl3 and centrifuged as above. The upper aqueous phases containing water-soluble low-molecular weight compounds were collected, subjected to chloroform washings for two more times (this procedure allowed the removal of all the organic solvent and of any lipid soluble compound from the buffered tissue extracts), adjusted in volumes with 10 mM KH2PO4, pH 7.40, to have ultimately aqueous 10% tissue homogenates and saved at -80° C. until assayed.
# Aliquots of each deproteinized tissue samples were filtered through a 0.45 µm HV Millipore filter and loaded (200 µl) onto a Hypersil C-18, 250 × 4.6 mm, 5 µm particle size column, provided with its own guard column (Thermo Fisher Scientific, Rodano, Milan, Italy) and connected to an HPLC apparatus consisting of a Surveyor System (Thermo Fisher Scientific, Rodano, Milan, Italy) with a highly sensitive diode array detector (equipped with a 5 cm light path flow cell) and set up between 200 and 300 nm wavelength. Data acquisition and analysis were performed by a PC using the ChromQuest® software package provided by the HPLC manufacturer. […]
# [1] = Acute phase 1: drug 30 min, sacrifice 2 d post-TBI
# [2] = Acute phase 2: drug 30 min, sacrifice 7 d post-TBI
# [3] = Chronic phase: drug 3 d, sacrifice 7 d post-TBI
# [4] = after administration of LMW-DS 15 mg/kg
substance,measurement,setting,value
sodium salt of dextran sulfate [LMW-DS],ASCORBIC ACID,[1],"3733.10±277.88^a,d nmol/g (w.w.)"
same,CDP choline,[1],"10.93±3.22^b,h nmol/g (w.w.)"
same,CMP,[1],"30.12±9.97^a,h nmol/g (w.w.)"
same,CREATININE,[1],"24.55±3.20^b,g,i nmol/g (w.w.)"
same,CYTIDINE,[1],15.40 ± 3.04 nmol/g (w.w.)
same,CYTOSINE,[1],"17.69±2.50^b,d nmol/g (w.w.)"
same,GSH,[1],"2649.50±397.31^a,d nmol/g (w.w.)"
same,GUANINE,[1],4.80±1.24^b nmol/g (w.w.)
same,GUANOSINE,[1],20.71 ± 5.66 nmol/g (w.w.)
same,HYPOXANTHINE,[1],14.47±2.87^a nmol/g (w.w.)
same,INOSINE,[1],92.55±31.20^c nmol/g (w.w.)
same,MDA,[1],"12.47±2.09^a,c,g nmol/g (w.w.)"
same,NO2,[1],216.03±41.74^a nmol/g (w.w.)
same,URACIL,[1],14.56 ± 5.44 nmol/g (w.w.)
same,URIC ACID,[1],"23.62±3.77^a,d,h nmol/g (w.w.)"
same,URIDINE,[1],"76.35±12.85^a,c nmol/g (w.w.)"
same,XANTHINE,[1],9.46±2.34^d nmol/g (w.w.)
same,adenine,[1],"44.82±6.31 ^a,d,g nmol/g (w.w.)"
same,thymidine,[1],0.69 ± 0.11 nmol/g (w.w.)
same,β-PSEUDOURIDINE,[1],"6.65±1.30^g,i nmol/g (w.w.)"
same,ASCORBIC ACID,[2],"3512.58±224.62^a,e nmol/g (w.w.)"
same,CDP choline,[2],6.91 ± 1.86 nmol/g (w.w.)
same,CMP,[2],"15.68±2.12^f,j nmol/g (w.w.)"
same,CREATININE,[2],"37.27±5.82^a,e,j nmol/g (w.w.)"
same,CYTIDINE,[2],16.18±4.21^e nmol/g (w.w.)
same,CYTOSINE,[2],15.70±4.10^f nmol/g (w.w.)
same,GSH,[2],"2821.50±242.82^a,e nmol/g (w.w.)"
same,GUANINE,[2],4.73 ± 1.07 nmol/g (w.w.)
same,GUANOSINE,[2],17.90±3.24^j nmol/g (w.w.)
same,HYPOXANTHINE,[2],"12.90±2.58^a,j nmol/g (w.w.)"
same,INOSINE,[2],85.52±20.36^e nmol/g (w.w.)
same,MDA,[2],"4.82±1.73^a,e,i nmol/g (w.w.)"
same,NO2,[2],226.40±30.95^b nmol/g (w.w.)
same,URACIL,[2],"19.40±7.52^a,e nmol/g (w.w.)"
same,URIC ACID,[2],"19.17±2.15^a,h,i nmol/g (w.w.)"
same,URIDINE,[2],"63.02±9.66^b,e nmol/g (w.w.)"
same,XANTHINE,[2],10.41±2.11^f nmol/g (w.w.)
same,adenine,[2],"58.16±6.36^a,f nmol/g (w.w.)"
same,thymidine,[2],0.49±0.20^f nmol/g (w.w.)
same,β-PSEUDOURIDINE,[2],"13.26±3.16^a,e,j nmol/g (w.w.)"
same,ASCORBIC ACID,[3],"3375.03±856.41 ^a,e nmol/g (w.w.)"
same,CDP choline,[3],8.37 ± 2.19 nmol/g (w.w.)
same,CMP,[3],"20.51±3.73^a,f nmol/g (w.w.)"
same,CREATININE,[3],"51.25±10.17^a,f nmol/g (w.w.)"
same,CYTIDINE,[3],14.71±2.83^e nmol/g (w.w.)
same,CYTOSINE,[3],"15.58±2.50^b,f nmol/g (w.w.)"
same,GSH,[3],"2608.67±358.07^a,e nmol/g (w.w.)"
same,GUANINE,[3],5.31±1.04^b nmol/g (w.w.)
same,GUANOSINE,[3],"28.87±7.60^a,f nmol/g (w.w.)"
same,HYPOXANTHINE,[3],17.97±4.49^a nmol/g (w.w.)
same,INOSINE,[3],105.81±25.57^f nmol/g (w.w.)
same,MDA,[3],"11.62±3.90^a,e nmol/g (w.w.)"
same,NO2,[3],217.67±55.04^a nmol/g (w.w.)
same,URACIL,[3],16.57±2.99^a f nmol/g (w.w.)
same,URIC ACID,[3],27.77±3.60^a nmol/g (w.w.)
same,URIDINE,[3],63.28±3.37^f nmol/g (w.w.)
same,XANTHINE,[3],9.35±0.83^f nmol/g (w.w.)
same,adenine,[3],"52.94±8.59^a,f nmol/g (w.w.)"
same,thymidine,[3],0.71 ± 0.11 nmol/g (w.w.)
same,β-PSEUDOURIDINE,[3],18.62±2.80^a nmol/g (w.w.)
same,nitrate concentrations,acute and chronic phases of sTBI,significantly decreased
same,MDA levels,[4],significant reduction
same,ascorbic acid and GSH levels,[4],significant improvement
same,"NAA and its substrates, levels","after sTBI, LMW-DS 15 mg/kg",significant improvements
